Assay results published in PubChem BioAssay AID328 (DTP/NCI, 2004).
Where “and” joins values, the source holds several entries; their conditions need not be identical. Equal values may be shown once. Inconclusive results and toxic doses are left out.

System: BDF1 mice, P388 leukemia ip, median survival T/C
Assay: NCI In Vivo Anticancer Drug Screen. Data for tumor model P388 Leukemia (intraperitoneal) in B6D2F1 (BDF1) mice
Conditions: endpoint: median survival time, higher = longer survival
Method in brief: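 Vehicle-dosed animals serve as the reference; survival of compound-dosed, tumour-implanted mice is divided by it.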

[1] = dose: 100.0 mg/kg/injection, schedule: Q01DX009 (ip), vehicle: Klucel (hydroxypropylcellulose) (HPC)
[2] = dose: 200.0 mg/kg/injection, schedule: Q01DX009 (ip), vehicle: Klucel (hydroxypropylcellulose) (HPC)
[3] = dose: 400.0 mg/kg/injection, schedule: Q01DX009 (ip), vehicle: Klucel (hydroxypropylcellulose) (HPC)
[4] = dose: 100.0 mg/kg/injection, schedule: Q04DX003 (ip), vehicle: saline with Tween-80
[5] = dose: 200.0 mg/kg/injection, schedule: Q04DX003 (ip), vehicle: saline with Tween-80
[6] = dose: 400.0 mg/kg/injection, schedule: Q04DX003 (ip), vehicle: saline with Tween-80
[7] = dose: 50.0 mg/kg/injection, schedule: Q01DX009 (ip), vehicle: saline
[8] = dose: 50.0 mg/kg/injection, schedule: Q01DX009 (ip), vehicle: saline with Tween-80
[9] = dose: 50.0 mg/kg/injection, schedule: Q04DX003 (ip), vehicle: saline
[10] = dose: 100.0 mg/kg/injection, schedule: Q01DX009 (ip), vehicle: saline with Tween-80
[11] = dose: 100.0 mg/kg/injection, schedule: Q04DX003 (ip), vehicle: saline
[12] = dose: 200.0 mg/kg/injection, schedule: Q01DX009 (ip), vehicle: saline with Tween-80
[13] = dose: 200.0 mg/kg/injection, schedule: Q04DX003 (ip), vehicle: saline

For `COC(=O)C/C(=C\c1ccc(OC)c(OC)c1)C(=O)OC`, the T/C [1] was 109 % of control, the T/C (dose: 100.0 mg/kg/injection, schedule: Q04DX003 (ip), vehicle: Klucel (hydroxypropylcellulose) (HPC)) was 104 % of control and the T/C [2] was 113 % of control. The T/C (dose: 200.0 mg/kg/injection, schedule: Q04DX003 (ip), vehicle: Klucel (hydroxypropylcellulose) (HPC)) was 100 % of control, the T/C [3] was 100 % of control and the T/C (dose: 400.0 mg/kg/injection, schedule: Q04DX003 (ip), vehicle: Klucel (hydroxypropylcellulose) (HPC)) was 100 % of control.

With `O=C(Nc1cc(C(F)(F)F)ccc1Cl)c1ccccc1Cl` the T/C [4] was 100 % of control, the T/C [5] was 104 % of control and the T/C [6] was 113 % of control.

`CC1=CC2C(O)(CC(CO)=CC3C4C(C)(C)C4(OC(=O)c4ccccc4)C(OC(=O)c4ccccc4)C(C)C32O)C1=O` (configuration not stated) was tested, and the T/C (dose: 0.03 mg/kg/injection, schedule: Q01DX009 (ip), vehicle: Klucel (hydroxypropylcellulose) (HPC)) was 95 % of control, the T/C (dose: 0.03 mg/kg/injection, schedule: Q01DX009 (ip), vehicle: saline + alcohol) was 93 % of control and the T/C (dose: 0.06 mg/kg/injection, schedule: Q01DX009 (ip), vehicle: Klucel (hydroxypropylcellulose) (HPC)) was 99 % of control. For the same compound, the T/C (dose: 0.06 mg/kg/injection, schedule: Q01DX009 (ip), vehicle: saline + alcohol) was 94 % of control, the T/C (dose: 0.12 mg/kg/injection, schedule: Q01DX009 (ip), vehicle: Klucel (hydroxypropylcellulose) (HPC)) was 99 % of control and the T/C (dose: 0.12 mg/kg/injection, schedule: Q01DX009 (ip), vehicle: saline + alcohol) was 112 % of control. For the same compound, the T/C (dose: 0.25 mg/kg/injection, schedule: Q01DX009 (ip), vehicle: Klucel (hydroxypropylcellulose) (HPC)) was 94 % of control, the T/C (dose: 0.25 mg/kg/injection, schedule: Q01DX009 (ip), vehicle: saline + alcohol) was 119 % of control and the T/C (dose: 0.5 mg/kg/injection, schedule: Q01DX009 (ip), vehicle: Klucel (hydroxypropylcellulose) (HPC)) was 89 % of control. For the same compound, the T/C (dose: 0.5 mg/kg/injection, schedule: Q01DX009 (ip), vehicle: saline + alcohol) was 119 % of control, the T/C (dose: 1.0 mg/kg/injection, schedule: Q01DX009 (ip), vehicle: Klucel (hydroxypropylcellulose) (HPC)) was 110 % of control and the T/C (dose: 1.0 mg/kg/injection, schedule: Q01DX009 (ip), vehicle: saline + alcohol) was 92 % of control. The T/C (dose: 3.1 micrograms/kg/injection, schedule: Q01DX009 (ip), vehicle: gum acacia) was 116 % of control, the T/C (dose: 3.1 micrograms/kg/injection, schedule: Q01DX009 (ip), vehicle: saline + alcohol) was 172 % of control and the T/C (dose: 3.1 micrograms/kg/injection, schedule: Q01DX009 (ip), vehicle: saline with Tween-80) was 88 % of control and 118 % of control. For the same compound, the T/C (dose: 6.2 micrograms/kg/injection, schedule: Q01DX009 (ip), vehicle: gum acacia) was 110 % of control, the T/C (dose: 6.2 micrograms/kg/injection, schedule: Q01DX009 (ip), vehicle: saline + alcohol) was 118 % of control and the T/C (dose: 6.2 micrograms/kg/injection, schedule: Q01DX009 (ip), vehicle: saline with Tween-80) was 119 % of control. The T/C (dose: 12.5 micrograms/kg/injection, schedule: Q01DX009 (ip), vehicle: gum acacia) was 107 % of control, the T/C (dose: 12.5 micrograms/kg/injection, schedule: Q01DX009 (ip), vehicle: saline + alcohol) was 110 % of control and the T/C (dose: 12.5 micrograms/kg/injection, schedule: Q01DX009 (ip), vehicle: saline with Tween-80) was 98 % of control and 121 % of control. For the same compound, the T/C (dose: 25.0 micrograms/kg/injection, schedule: Q01DX009 (ip), vehicle: gum acacia) was 108 % of control, the T/C (dose: 25.0 micrograms/kg/injection, schedule: Q01DX009 (ip), vehicle: saline + alcohol) was 110 % of control and the T/C (dose: 25.0 micrograms/kg/injection, schedule: Q01DX009 (ip), vehicle: saline with Tween-80) was 93 % of control. For the same compound, the T/C (dose: 50.0 micrograms/kg/injection, schedule: Q01DX009 (ip), vehicle: gum acacia) was 110 % of control, the T/C (dose: 50.0 micrograms/kg/injection, schedule: Q01DX009 (ip), vehicle: saline + alcohol) was 116 % of control and the T/C (dose: 100.0 micrograms/kg/injection, schedule: Q01DX009 (ip), vehicle: gum acacia) was 105 % of control. The T/C (dose: 100.0 micrograms/kg/injection, schedule: Q01DX009 (ip), vehicle: saline + alcohol) was 110 % of control, the T/C (dose: 100.0 micrograms/kg/injection, schedule: Q01DX009 (ip), vehicle: saline with Tween-80) was 104 % of control and the T/C (dose: 200.0 micrograms/kg/injection, schedule: Q01DX009 (ip), vehicle: gum acacia) was 110 % of control. For the same compound, the T/C (dose: 200.0 micrograms/kg/injection, schedule: Q01DX009 (ip), vehicle: saline + alcohol) was 150 % of control, the T/C (dose: 200.0 micrograms/kg/injection, schedule: Q01DX009 (ip), vehicle: saline with Tween-80) was 107 % of control and 116 % of control and the T/C (dose: 400.0 micrograms/kg/injection, schedule: Q01DX009 (ip), vehicle: saline + alcohol) was 116 % of control. For the same compound, the T/C (dose: 800.0 micrograms/kg/injection, schedule: Q01DX009 (ip), vehicle: gum acacia) was 96 % of control, the T/C (dose: 800.0 micrograms/kg/injection, schedule: Q01DX009 (ip), vehicle: saline + alcohol) was 96 % of control and the T/C (dose: 800.0 micrograms/kg/injection, schedule: Q01DX009 (ip), vehicle: saline with Tween-80) was 98 % of control and 110 % of control.

For `CC(C)CCCCCCCCCCCCC(=O)NCC(=O)NC1C(C)OC(Nc2ncnc3nc[nH]c23)C(O)C1O` (configuration not stated), the T/C (dose: 432.0 micrograms/kg/injection, schedule: Q04DX003 (ip), vehicle: saline) was 110 % of control.

For `CO[C@H]1/C=C/O[C@@]2(C)Oc3c(C)c(O)c4c(O)c(c(/C=N/N5CCNCC5)c(O)c4c3C2=O)NC(=O)/C(C)=C\C=C\[C@H](C)[C@H](O)[C@@H](C)[C@@H](O)[C@@H](C)C(OC(C)=O)[C@@H]1C` (some centres not stated), the T/C [7] was 114 % of control, the T/C (dose: 100.0 mg/kg/injection, schedule: Q01DX009 (ip), vehicle: saline) was 114 % of control and the T/C (dose: 200.0 mg/kg/injection, schedule: Q01DX009 (ip), vehicle: saline) was 114 % of control.

`Cc1cc(C)c(NC(=O)N(CCCl)N=O)cc1C` was tested, and the T/C (dose: 20.0 mg/kg/injection, schedule: Q01DX009 (ip), vehicle: other) was 110 % of control, the T/C (dose: 45.0 mg/kg/injection, schedule: Q01DX009 (ip), vehicle: other) was 100 % of control and the T/C (dose: 50.0 mg/kg/injection, schedule: Q01DX009 (ip), vehicle: other) was 122 % of control. For the same compound, the T/C [8] was 105 % of control, the T/C [9] was 108 % of control and the T/C (dose: 65.0 mg/kg/injection, schedule: Q01DX009 (ip), vehicle: other) was 150 % of control. The T/C [10] was 105 % of control, the T/C [11] was 108 % of control and the T/C (dose: 200.0 mg/kg/injection, schedule: Q01DX009 (ip), vehicle: other) was 122 % of control. For the same compound, the T/C [12] was 105 % of control and the T/C [13] was 95 % of control.

`CCOC(=O)C1=C(O)Cc2c(nc3ccc(C)cn3c2=O)C1` was tested, and the T/C [8] was 100 % of control, the T/C [10] was 96 % of control and the T/C [12] was 98 % of control.

In the case of `O=C(/C=C/c1ccc(OCc2ccccc2)cc1)c1ccccn1`, the T/C [8] is reported as 97 % of control, the T/C [10] is reported as 98 % of control and the T/C [12] is reported as 96 % of control.

`CCOC(=O)C1CC=CCC1C(=O)OCC` (configuration not stated) was tested, and the T/C [11] was 118 % of control, the T/C [13] was 118 % of control and the T/C (dose: 400.0 mg/kg/injection, schedule: Q04DX003 (ip), vehicle: saline) was 109 % of control.

With `CCOC(=O)Nc1cc(NC(C)CCCN(CC)CC)c2ncc(-c3cc(OC)c(OC)c(OC)c3)nc2n1` (configuration not stated) (tested in a mixture with another compound) the T/C (dose: 25.0 mg/kg/injection, schedule: Q01DX009 (ip), vehicle: saline) was 115 % of control, the T/C [7] was 120 % of control and the T/C [9] was 95 % of control. The T/C [11] was 109 % of control.

`CCCNC(=O)NO` was tested, and the T/C [1] was 119 % of control, the T/C (dose: 100.0 mg/kg/injection, schedule: Q04DX003 (ip), vehicle: other) was 87 % of control and the T/C [2] was 104 % of control. For the same compound, the T/C (dose: 200.0 mg/kg/injection, schedule: Q04DX003 (ip), vehicle: other) was 104 % of control, the T/C [3] was 114 % of control and the T/C (dose: 400.0 mg/kg/injection, schedule: Q04DX003 (ip), vehicle: other) was 104 % of control.

`CCC(O)(CC(=O)O)c1ccccc1` (configuration not stated) was tested, and the T/C [4] was 95 % of control, the T/C [5] was 90 % of control and the T/C [6] was 90 % of control.

`COc1ccc(C)cc1NN` was tested, and the T/C (dose: 12.5 mg/kg/injection, schedule: Q01DX009 (ip), vehicle: saline) was 100 % of control, the T/C [7] was 100 % of control and the T/C [9] was 109 % of control. The T/C [11] was 104 % of control and the T/C [13] was 95 % of control.
